How the values were obtained:
MiaPaca2 = experiment: Cell proliferation / cell death assay, MiaPaca2; format: cell-based, human; conditions: MiaPaca2, 10-100 μM
Description: (§1) Human pancreatic cancer cell lines (Panc-1, MiaPaca2, BXPC3, Aspc 1), human hepatoma cell line (HuH7), human gastric cancer cell lines (AGS, MKN45), human colon cancer cell line (CoCM-1), human mammary cancer cell line (MCF-7), human neuroblastoma (SH-SY5Y), human prostate cancer cells (PC3), and murine Ehrlich ascites cancer cells and mouse 3T3-L1 fibroblasts were obtained from American Type Culture Collection (Rockville, Md., USA). The cancer cells were cultured in RPMI 1640 containing 10% fetal calf serum. Cultures were maintained at 37° C. in a humidified atmosphere of 5% CO2.
(§2) Cell proliferation assays were performed with the CellTiter 96 AQueous One Solution Cell Proliferation Assay kit according to the manufacturer's instructions (Promega, Madison, Wis., USA). Briefly, 5×10^3 cells/well in medium were placed onto 96-well plates. IGs were added to cellular cultures at final concentrations of 0, 1, 10, and 100 μM. Cultures were incubated for 3 days or 7 days and then added to 20 μL/well of CellTiter 96 AQueous One Solution Reagent, which contains a tetrazolium compound, 3-(4,5-dimethylthiazol-2-yl)-5-(3-carboxymethoxyphenyl)-2-(4-sulfophenyl)-2H-tetrazolium, an inner salt; MTS was added to the culture medium. After incubating the plate for 1 h in a CO2 incubator, absorbance at 490 nm was recorded with a 96-well plate reader.

[1] = system: murine Ehrlich ascites cancer cells; experiment: Cell proliferation / cell death assay, Ehrlich ascites cancer cells; format: cell-based; conditions: 10-100 μM
Description: as §1, §2

BXPC3 = experiment: Cell proliferation / cell death assay, BXPC3; format: cell-based, human; conditions: BXPC3, 10-100 μM
Description: as §1, §2

STZ-diabetic mice = experiment: Intraperitoneal IG1 for 7 days, STZ-diabetic mice; format: in vivo
Description: (§3) Male C57BL/6 mice were housed individually and given free access to a standard diet (65% carbohydrate, 4% fat, and 24% protein) or a high-fat diet (Quick Fat; 60.2% carbohydrate, 15.3% fat, and 24.5% protein; Clea Japan, Tokyo, Japan), starting at 5 weeks of age, for 5 weeks. Db/db mice also were housed individually and given free access to a standard diet. C57BL/6 mice at 5 weeks of age, were received a single dose of 75 μg/g body weight streptozotoxin (STZ). 7 days after injections, the mice, whose fasting plasma glucose concentrations were over 400 mg/dl, were used as STZ-diabetic mice. […]
(§4) Frozen livers were homogenized, and triglycerides were extracted with CHCl3:CH3OH (2:1, vol:vol), dried and resuspended in 2-propanol (17). Triglyceride contents were measured using Lipidos liquid (TOYOBO, Osaka, Japan). […] Glycogen content was determined by the phenol-sulfuric acid spectrophotometric method at 490 nm (18) and expressed as micrograms of glycogen per milligram of liver.
(§5) Blood glucose was assayed with Glucose Ace (Sanwa Kagaku Kenkyusho, Nagoya, Japan). Serum insulin and leptin were determined with ELISA kits (Morinaga Institute of Biological Science, Yokohama, Japan). Serum adiponectin and tumor necrosis factor-α (TNF-α) concentrations were measured with an ELISA kit (Ohtsuka Pharmaceutical, Tokyo, Japan) and a TNF-α assay kit (Amersham Biosciences, Uppsala, Sweden), respectively. […]

[2] = system: C57B/6 mice on high-fat diets; experiment: Intravenous administration of IG1, mice on high-fat diets; format: in vivo
Description: as §3, §4, §5

[3] = system: human mammary cancer cells (MCF-7); experiment: Cell proliferation / cell death assay, MCF-7; format: cell-based; conditions: MCF-7, 10-100 μM
Description: as §1, §2

[4] = system: C57B/6 mice on normal diets; experiment: Intravenous administration of IG1, mice on normal diets; format: in vivo
Description: as §3, §4, §5

[5] = system: human normal cultured cells; experiment: Proliferation of human normal cultured cells; format: cell-based; conditions: 1-100 μM, data not shown
Description: Human primary culture cells, dermal fibroblasts, epidermal keratinocytes and umbilical vein endothelial cells were purchased from Cell Applications (San Diego, Calif., USA) and cultured according to the manufacturer's instructions.
as §2

Panc-1 cells = experiment: Lactate production in Panc-1 cells; format: cell-based, human; conditions: 1 hour incubation in serum free media
Description: as §1

3T3-L1 adipocytes = experiment: Lipogenesis in 3T3-L1 adipocytes; format: cell-based, mouse; conditions: 10-1000 μM
Description: 3T3-L1 fibroblasts were maintained in Dulbecco's modified Eagle's medium (DMEM) with 25 mM glucose plus 10% fetal bovine serum (FBS). Following 2 days at confluence, differentiation was initiated by the addition of DMEM containing 10% FBS, 167 nM insulin, […] dexamethasone, and 0.5 mM isobutylmethylxanthine. Three days later, the medium was replaced with DMEM plus 10% FBS and 167 nM insulin. After 2 more days, the medium was switched to DMEM plus 10% fetal bovine serum. Adipocytes were used 6-14 days after completion of the differentiation protocol, when >90% of the cells expressed the adipocyte phenotype. Prior to experiments, cells were washed two times with DMEM medium containing 5 mM glucose, 0.2% bovine serum albumin, 25 mM Hepes (pH 7.4), 100 units/ml penicillin, 100 units/ml streptomycin and 0.29 mg/ml glutamine, and were incubated in the same medium for 2 h. Glycogen and lipid synthesis were measured in 24-well dishes. […] The lipids were then extracted overnight with 5 ml of Betafluor (National Diagnostics), and glucose incorporation into lipid was measured by scintillation counting. 400 μl of the cell suspension was added to 600 μl of 50% KOH, and glycogen was precipitated and radioactivity was counted by a liquid scintillation counter

With `CCCCCCCCCCCCCCCC(=O)O[C@@H]1C(O)C(O)[C@H](O)C(O[C@H]2OC(CO)[C@@H](O)[C@H](O)C2N)C1O` (stereo in doubt) [IG1, 2-Amino-2-deoxy-α-D-glucopyranosyl-(1→6)-2-palmitoyl-D-myo-inositol] the “rapid cancer cell death” value (MiaPaca2) was “rapid cancer cell death was demonstrated”, the “rapid cancer cell death” value [1] was “rapid cancer cell death was demonstrated” and the “rapid cancer cell death” value (BXPC3) was “rapid cancer cell death was demonstrated”. For the same compound, the “hepatic and muscular glycogen synthesis” value (STZ-diabetic mice; intraperitoneal 7 days, data not shown) was “increases hepatic and muscular glycogen synthesis”, the “fasting plasma glucose concentrations” value (STZ-diabetic mice; intraperitoneal, 0.3 mg per mice, for every 7 days) was “significantly reduced fasting plasma glucose concentrations” and the plasma glucose concentrations ([2]; intravenous, 0.3-1 mg per mice, 90-300 min after administration) was “significantly reduced plasma glucose concentrations”. For the same compound, the “hepatic and muscular glycogen contents” value ([2]; mice on high-fat diets, data not shown) was “significantly increases hepatic and muscular glycogen contents”, the “rapid cancer cell death” value [3] was “rapid cancer cell death was demonstrated” and the plasma glucose concentrations ([4]; intravenous, normal mice) was “reduced plasma glucose concentrations”. The “hepatic and muscular glycogen synthesis” value ([4]; mice on normal diets, data not shown) was “increases hepatic and muscular glycogen synthesis”, the “proliferation of human normal cultured cells” value [5] was “did not affect the proliferation” and the “lactate production (aerobic glycolysis)” value (Panc-1 cells) was “inhibits lactate production”. For the same compound, the lipogenesis (3T3-L1 adipocytes) was “stimulates”.
